Each structure is given as a SMILES string.

Broadly, the IC50 is the concentration that gives 50% inhibition.

The target of this assay is T1, human CCR6 (Homo sapiens, UniProt P51684).
T1 construct: expressed in transfected cells; host or cells: HEK-293
T1 sequence (P51684 1-374): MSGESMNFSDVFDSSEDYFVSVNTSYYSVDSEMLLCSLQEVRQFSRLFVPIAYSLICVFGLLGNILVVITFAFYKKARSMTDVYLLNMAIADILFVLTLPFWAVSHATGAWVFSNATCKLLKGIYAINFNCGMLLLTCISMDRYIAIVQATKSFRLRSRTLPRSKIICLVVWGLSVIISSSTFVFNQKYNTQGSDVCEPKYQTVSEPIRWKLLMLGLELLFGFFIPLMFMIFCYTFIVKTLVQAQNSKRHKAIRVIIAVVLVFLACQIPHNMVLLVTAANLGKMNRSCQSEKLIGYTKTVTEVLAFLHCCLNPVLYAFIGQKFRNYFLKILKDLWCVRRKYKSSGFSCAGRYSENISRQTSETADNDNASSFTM
The assay can be described thus: FLIPR assay: inhibition of CCL20-induced calcium signal in HEK-293 cells expressing human CCR6. The class given is cell-based. As to conditions: engineered HEK-293 cells expressing human CCR6; agonist CCL20 10 nM; 30 min preincubation; Fluo-8-AM; mean values if determined several times. The method, then:
FLIPR assay: The bioactivity of compounds is tested in a fluorometric imaging plate reader (FLIPR: Molecular Devices) using engineered HEK-293 cells expressing the human CCR6 (GenBank: AY242126). Frozen cells are plated on Poly-L-Lysine precoated 384-well plates 2 days prior to bioassay in DMEM medium supplemented with 10% FCS and 1% Penicillin-Streptomycin. At the day of bioassay, cell supernatant is discarded and cells are dye loaded for 30 minutes at room temperature in the dark with Fluo-8-AM (Focus Biomolecules) in Hanks Balanced Salt Solution (Gibco), buffered with 20 mM Hepes at pH 6.75 and supplemented with 0.05% BSA. This buffer, but lacking the dye, is also used for washing and compound dilution steps (assay buffer). Cells are washed free of excess dye with a wash-station (Biotek), leaving 40 microliter of assay buffer at the end. Cells were incubated for 15 minutes at room temperature in the dark, before adding compounds. Stock solutions of test compounds are made up at a concentration of 10 mM in DMSO, and serially diluted first in DMSO and then transferred in assay buffer to concentrations required for inhibition dose response curves. After a 45 minute incubation period in assay buffer at room temperature, 10 microliters of each compound dilution are transferred from a compound plate to the plate containing the recombinant cells in the FLIPR instrument according to the manufacturer's instructions. After cells and compounds were preincubated for 30 minutes at room temperature in the dark, 10 microliter agonist CCL20 (Peprotech) at a final concentration of 10 nM is added, again using the FLIPR instrument. Changes in fluorescence are monitored before and after addition of the test compounds and agonist. Emission peak values above base level after CCL20 addition are exported after base line subtraction. The calculated IC50 values may fluctuate depending on the daily assay performance. Fluctuations of this kind are known to those skilled in the art. In the case where IC50 values have been determined several times for the same compound, mean values are given.
Regarding `CC(C)c1ccc([C@](O)(c2cncc(-c3nc(C4(O)CCOCC4)n(C(C)C)n3)c2)C2(C)CN(C)C2)cc1` [Example 31, 4-(5-{5-[(R)-(1,3-Dimethyl-azetidin-3-yl)-hydroxy-(4-isopropyl-phenyl)-methyl]-pyridin-3-yl}-2-isopropyl-2H-[1,2,4]triazol-3-yl)-tetrahydro-pyran-4-ol], the IC50 was 86.3 nM. The result for `CC(C)c1ccc([C@](O)(c2cncc(-c3nc(C45CCC(C(=O)O)(CC4)CC5)n(C4CC4)n3)c2)C2(C)CN(C)C2)cc1` [Example 13, 4-(2-Cyclopropyl-5-{5-[(R)-(1,3-dimethyl-azetidin-3-yl)-hydroxy-(4-isopropyl-phenyl)-methyl]-pyridin-3-yl}-2H-[1,2,4]triazol-3-yl)-bicyclo[2.2.2]octane-1-carboxylic acid] reads 149 nM; that for `CN1CC(C)([C@](O)(c2ccc(CC(F)(F)F)cc2)c2cncc(-c3nc(C4CCOCC4)n(C4CC4)n3)c2)C1` [Example 5, (R)-{5-[1-Cyclopropyl-5-(tetrahydro-pyran-4-yl)-1H-[1,2,4]triazol-3-yl]-pyridin-3-yl}-(1,3-dimethyl-azetidin-3-yl)-[4-(2,2,2-trifluoro-ethyl)-phenyl]-methanol], 182 nM; that for `CC(C)c1ccc([C@](O)(c2cncc(-c3nc(C4(C)CCNC(=O)C4)n(C(C)C)n3)c2)C2(C)CN(C)C2)cc1` (stereo partly drawn) [Example 45, 4-(5-{5-[(R)-(1,3-Dimethyl-azetidin-3-yl)-hydroxy-(4-isopropyl-phenyl)-methyl]-pyridin-3-yl}-2-isopropyl-2H-[1,2,4]triazol-3-yl)-4-methyl-piperidin-2-one], 193 nM. To `CC(C)c1ccc([C@](O)(c2cncc(-c3nc([C@H]4CC[C@H](O)CC4)n(C4CC4)n3)c2)C2(C)CN(C)C2)cc1` [Example 8, trans-4-(2-Cyclopropyl-5-{5-[(R)-(1,3-dimethyl-azetidin-3-yl)-hydroxy-(4-isopropyl-phenyl)-methyl]-pyridin-3-yl}-2H-[1,2,4]triazol-3-yl)-cyclohexanol] belongs 98.5 nM. The result for `CC(C)c1ccc([C@](O)(c2cncc(-c3nc(C4CCOCC4)n(C4CC4)n3)c2)C2(C)CN(C)C2)cc1F` [Example 38, (R)-{5-[1-Cyclopropyl-5-(tetrahydro-pyran-4-yl)-1H-[1,2,4]triazol-3-yl]-pyridin-3-yl}-(1,3-dimethyl-azetidin-3-yl)-(3-fluoro-4-isopropyl-phenyl)-methanol] reads 78.1 nM.

For the compound `CC(C)c1ccc([C@](O)(c2cncc(-c3nc(C4CCOCC4)n(C(C)(C)C)n3)c2)C2(C)CN(C)C2)cc1` [Example 21, (R)-{5-[1-tert-Butyl-5-(tetrahydro-pyran-4-yl)-1H-[1,2,4]triazol-3-yl]-pyridin-3-yl}-(1,3-dimethyl-azetidin-3-yl)-(4-isopropyl-phenyl)-methanol], the IC50 is 39.9 nM. `CC(C)c1ccc([C@](O)(c2cncc(-c3nc(C4CCN(C)C(=O)C4)n(C(C)C)n3)c2)C2(C)CN(C)C2)cc1` (stereo partly drawn) [Example 42, 4-(5-{5-[(R)-(1,3-Dimethyl-azetidin-3-yl)-hydroxy-(4-isopropyl-phenyl)-methyl]-pyridin-3-yl}-2-isopropyl-2H-[1,2,4]triazol-3-yl)-1-methyl-piperidin-2-one]: the IC50 worked out at 200 nM. The result for `CC(=O)N1CCC(O)(c2nc(-c3cncc([C@@](O)(c4ccc(C(C)C)cc4)C4(C)CN(C)C4)c3)nn2C(C)C)CC1` [Example 47, 1-[4-(5-{5-[(R)-(1,3-Dimethyl-azetidin-3-yl)-hydroxy-(4-isopropyl-phenyl)-methyl]-pyridin-3-yl}-2-isopropyl-2H-[1,2,4]triazol-3-yl)-4-hydroxy-piperidin-1-yl]-ethanone] reads 206 nM; that for `CC(C)c1ccc([C@](O)(c2cncc(-c3nc(C4(O)CCOCC4)n(C4CC4)n3)c2)C2(C)CN(C)C2)cc1` [Example 30, 4-(2-Cyclopropyl-5-{5-[(R)-(1,3-dimethyl-azetidin-3-yl)-hydroxy-(4-isopropyl-phenyl)-methyl]-pyridin-3-yl}-2H-[1,2,4]triazol-3-yl)-tetrahydro-pyran-4-ol], 98.1 nM. With `CC(C)c1ccc([C@](O)(c2cncc(-c3nc(C4CCOCC4)n(C4CC4)n3)c2)C2(C)CN(CCO)C2)cc1` [Example 36, 2-{3-[(R)-{5-[1-Cyclopropyl-5-(tetrahydro-pyran-4-yl)-1H-[1,2,4]triazol-3-yl]-pyridin-3-yl}-hydroxy-(4-isopropyl-phenyl)-methyl]-3-methyl-azetidin-1-yl}-ethanol], the half-maximal inhibitory concentration (IC50) came to 116 nM. For the compound `CC(C)c1ccc([C@](O)(c2cncc(-c3nc(C(C)(C)O)n(C(C)C)n3)c2)C2(C)CN(C)C2)cc1` [Example 27, 2-(5-{5-[(R)-(1,3-Dimethyl-azetidin-3-yl)-hydroxy-(4-isopropyl-phenyl)-methyl]-pyridin-3-yl}-2-isopropyl-2H-[1,2,4]triazol-3-yl)-propan-2-ol], the IC50 was determined as 59.5 nM.

As to `COCCn1nc(-c2cncc([C@@](O)(c3ccc(C(C)C)cc3)C3(C)CN(C)C3)c2)nc1C1CCOCC1` [Example 48, (R)-(1,3-Dimethyl-azetidin-3-yl)-(4-isopropyl-phenyl)-{5-[1-(2-methoxy-ethyl)-5-(tetrahydro-pyran-4-yl)-1H-[1,2,4]triazol-3-yl]-pyridin-3-yl}-methanol], the IC50 amounted to 170 nM. `CCCc1nc(-c2cncc([C@@](O)(c3ccc(C(C)C)cc3)C3(C)CN(C)C3)c2)nn1C(C)C` [Example 41, (R)-(1,3-Dimethyl-azetidin-3-yl)-(4-isopropyl-phenyl)-[5-(1-isopropyl-5-propyl-1H-[1,2,4]triazol-3-yl)-pyridin-3-yl]-methanol]: the half-maximal inhibitory concentration (IC50) was 45.3 nM.

In the case of `CCc1ccc([C@](O)(c2cncc(-c3nc(C4CCOCC4)n(C4CC4)n3)c2)C2(C)CN(C)C2)cc1` [Example 6, (R)-{5-[1-Cyclopropyl-5-(tetrahydro-pyran-4-yl)-1H-[1,2,4]triazol-3-yl]-pyridin-3-yl}-(1,3-dimethyl-azetidin-3-yl)-(4-ethyl-phenyl)-methanol], the IC50 amounted to 124 nM. Take `CC(C)c1ccc([C@](O)(c2cncc(-c3nc(C45CC(CO)(C4)C5)n(C4CC4)n3)c2)C2(C)CN(C)C2)cc1` [Example 28, (R)-{5-[1-Cyclopropyl-5-(3-hydroxymethyl-bicyclo[1.1.1]pent-1-yl)-1H-[1,2,4]triazol-3-yl]-pyridin-3-yl}-(1,3-dimethyl-azetidin-3-yl)-(4-isopropyl-phenyl)-methanol]: the IC50 worked out at 61.1 nM.

On to `CCCc1ccc([C@](O)(c2cncc(-c3nc(C4CCOCC4)n(C4CC4)n3)c2)C2(C)CN(C)C2)cc1` [Example 7, (R)-{5-[1-Cyclopropyl-5-(tetrahydro-pyran-4-yl)-1H-[1,2,4]triazol-3-yl]-pyridin-3-yl}-(1,3-dimethyl-azetidin-3-yl)-(4-propyl-phenyl)-methanol], for which the half-inhibitory concentration (IC50) came to 44.4 nM. The result for `CN1CC(C)([C@](O)(c2ccc(C3(C(F)(F)F)CC3)cc2)c2cncc(-c3nc(C4CCOCC4)n(C4CC4)n3)c2)C1` [Example 3, (R)-{5-[1-Cyclopropyl-5-(tetrahydro-pyran-4-yl)-1H-[1,2,4]triazol-3-yl]-pyridin-3-yl}-(1,3-dimethyl-azetidin-3-yl)-[4-(1-trifluoromethyl-cyclopropyl)-phenyl]-methanol] reads 49.8 nM; that for `CNC(C)(C)c1nc(-c2cncc([C@@](O)(c3ccc(C(C)C)cc3)C3(C)CN(C)C3)c2)nn1C1CC1` [Example 11, (R)-{5-[1-Cyclopropyl-5-(1-methyl-1-methylamino-ethyl)-1H-[1,2,4]triazol-3-yl]-pyridin-3-yl}-(1,3-dimethyl-azetidin-3-yl)-(4-isopropyl-phenyl)-methanol], 519 nM.

Take `COC(=O)C12CCC(c3nc(-c4cncc([C@@](O)(c5ccc(C(C)C)cc5)C5(C)CN(C)C5)c4)nn3C3CC3)(CC1)CC2` [Example 10, 4-(2-Cyclopropyl-5-{5-[(R)-(1,3-dimethyl-azetidin-3-yl)-hydroxy-(4-isopropyl-phenyl)-methyl]-pyridin-3-yl}-2H-[1,2,4]triazol-3-yl)-bicyclo[2.2.2]octane-1-carboxylic acid methyl ester]: the IC50 was 43.9 nM.

The values are drawn from patent US20250042881A1, “CCR6 RECEPTOR MODULATORS” (Idorsia Pharmaceuticals Ltd, priority 2021, published 2025).
